Assay results taken from patent publication US7691416B2, “Methods of treating vascular disease” (priority 2002, dated 2010).
Entries after “also recorded” stand apart in the source; their conditions may differ.

Tests used:
[1] = system: ATF-2; assay: Western blot of phosphorylated ATF-2 in SMC; format: cell-based; settings: SMC exposed to CO (250 ppm)
Description: (§1) Animals. Male (250-350 g) Brown Norway rats (RT1^n) were used as aortic graft donors and male (250-350 g) Lewis rats (RT11) as recipients. Dawley (400-450 g) rats were used in the balloon injury model. Adult male C57BL/6, C57/S129, p21^−/− and p53^−/− null mice were purchased from Jackson Laboratory (Bar Harbor, Me.). mkk3^(−/−) null mice were generated as described Lu et al. (EMBO. 18:1845-1857 (1999)). The inos^−/− and enos^−/− mice were bred at the University of Pittsburgh. Aortic transplant model. Aortic transplantation was performed as described in Shimizu et al. (Nat. Med. 7:738-741 (2001)). Briefly, 3 to 4 cm of descending aorta was harvested from the donor and implanted between the renal arteries and the aortic bifurcation of the recipient. Both edges of the native abdominal aorta were ligated. Balloon injury model. Balloon angioplasty was carried out as described in Murakami et al. (Atherosclerosis 157:361-368 (2001)). […] [^3H]thymidine incorporation was measured by scintillation spectroscopy and presented as mean counts/min/well. […] Areas from eight to ten captured images were calculated using digital imaging software as number of pixels corresponding to those areas. Twenty-four to forty-eight sections from each group were statistically analyzed with SPSS software version 10. […]

[2] = system: p38 MAPK; assay: Western blot of phosphorylated p38 MAPK in SMC; format: cell-based, mouse
Description: Animals. Male (250-350 g) Brown Norway rats (RT1^n) were used as aortic graft donors and male (250-350 g) Lewis rats (RT11) as recipients. Dawley (400-450 g) rats were used in the balloon injury model. Adult male C57BL/6, C57/S129, p21^−/− and p53^−/− null mice were purchased from Jackson Laboratory (Bar Harbor, Me.). mkk3^(−/−) null mice were generated as described Lu et al. (EMBO. 18:1845-1857 (1999)). The inos^−/− and enos^−/− mice were bred at the University of Pittsburgh. Aortic transplant model. Aortic transplantation was performed as described in Shimizu et al. (Nat. Med. 7:738-741 (2001)). Briefly, 3 to 4 cm of descending aorta was harvested from the donor and implanted between the renal arteries and the aortic bifurcation of the recipient. Both edges of the native abdominal aorta were ligated. Balloon injury model. Balloon angioplasty was carried out as described in Murakami et al. (Atherosclerosis 157:361-368 (2001)). Briefly, a 2 Fr. arterial embolectomy catheter (Baxter, Chicago, Ill.) was inserted into the common carotid artery, and injury was created by inflating the balloon to 5 atmospheres of pressure for 5 minutes. The arteries were flushed and the external carotid artery was ligated, ensuring return of blood flow through the common and internal carotid arteries. Injury of the vessel wall and subsequent pathological analysis was made in a manner that was blinded to the treatment group. CO exposure. CO was delivered to animals as described in Otterbein et al. (Nat. Med. 6:422-428 (2000)). Graft donors and recipients were exposed to CO (250 ppm) for two days before transplantation and for 56 days immediately following transplantation. In the balloon injury model, rats received either no pretreatment or were exposed to CO (250 ppm) for one hour prior to injury. Following surgery rats were housed in room air for two weeks. Cells. Primary mouse and rat smooth muscle cells (SMC) were isolated and cultured as described in Laubach et al. (Proc Natl Acad Sci USA 92:10688-9 (1995)). Mouse SMC isolated from HO-1^−/− mice were obtained as described in Duckers et al. (Nat. Med. 7:693-698 (2001)). Cell treatment and reagents. Guanylate cyclase inhibitor 1H(1,2,4) oxadiazolo(4,3-a)quinoxalin-1 (ODQ; Calbiochem-Novabiochem, San Diego, Calif.; 10-100 μM) and p38 MAPK inhibitor pyridinyl imidazol SB203580 (Calbiochem; 5-20 μM) were dissolved in DMSO. […] [^3H]thymidine incorporation was measured by scintillation spectroscopy and presented as mean counts/min/well. […] Areas from eight to ten captured images were calculated using digital imaging software as number of pixels corresponding to those areas. Twenty-four to forty-eight sections from each group were statistically analyzed with SPSS software version 10. […]

[3] = system: mouse SMC; assay: SMC proliferation, [3H]thymidine incorporation; format: cell-based; settings: for SMC proliferation / Inhibition of SMC proliferation versus air treated controls: CO 250 ppm
Description: Animals. Male (250-350 g) Brown Norway rats (RT1^n) were used as aortic graft donors and male (250-350 g) Lewis rats (RT11) as recipients. Dawley (400-450 g) rats were used in the balloon injury model. Adult male C57BL/6, C57/S129, p21^−/− and p53^−/− null mice were purchased from Jackson Laboratory (Bar Harbor, Me.). mkk3^(−/−) null mice were generated as described Lu et al. (EMBO. 18:1845-1857 (1999)). The inos^−/− and enos^−/− mice were bred at the University of Pittsburgh. Aortic transplant model. Aortic transplantation was performed as described in Shimizu et al. (Nat. Med. 7:738-741 (2001)). Briefly, 3 to 4 cm of descending aorta was harvested from the donor and implanted between the renal arteries and the aortic bifurcation of the recipient. Both edges of the native abdominal aorta were ligated. Balloon injury model. Balloon angioplasty was carried out as described in Murakami et al. (Atherosclerosis 157:361-368 (2001)). Briefly, a 2 Fr. arterial embolectomy catheter (Baxter, Chicago, Ill.) was inserted into the common carotid artery, and injury was created by inflating the balloon to 5 atmospheres of pressure for 5 minutes. The arteries were flushed and the external carotid artery was ligated, ensuring return of blood flow through the common and internal carotid arteries. Injury of the vessel wall and subsequent pathological analysis was made in a manner that was blinded to the treatment group. CO exposure. CO was delivered to animals as described in Otterbein et al. (Nat. Med. 6:422-428 (2000)). Graft donors and recipients were exposed to CO (250 ppm) for two days before transplantation and for 56 days immediately following transplantation. In the balloon injury model, rats received either no pretreatment or were exposed to CO (250 ppm) for one hour prior to injury. Following surgery rats were housed in room air for two weeks. Cells. Primary mouse and rat smooth muscle cells (SMC) were isolated and cultured as described in Laubach et al. (Proc Natl Acad Sci USA 92:10688-9 (1995)). Mouse SMC isolated from HO-1^−/− mice were obtained as described in Duckers et al. (Nat. Med. 7:693-698 (2001)). Cell treatment and reagents. Guanylate cyclase inhibitor 1H(1,2,4) oxadiazolo(4,3-a)quinoxalin-1 (ODQ; Calbiochem-Novabiochem, San Diego, Calif.; 10-100 μM) and p38 MAPK inhibitor pyridinyl imidazol SB203580 (Calbiochem; 5-20 μM) were dissolved in DMSO. The cGMP analogue 8-bromo-cGMP sodium salt (8-Br-cGMP; Sigma-Aldrich, St. Louis, Mo.; 10-100 μM) and the PKG inhibitor (10-100 μM; Alexis Biochemicals) were dissolved in water. Cell counts and [^3H] thymidine incorporation. Rat and mouse SMC were isolated and cultured as described in Peyton et al. (Blood 99:4443-4448 (2002)). Proliferation assays were carried out as described in Petkova et al. (J Biol. Chem. 276:7932-7936 (2001)). For [^3H] thymidine incorporation studies, cells were serum-starved overnight and then stimulated with 10% serum containing 5 μCi/ml [^3H] thymidine (New England Nuclear, Boston Mass.). [^3H]thymidine incorporation was measured by scintillation spectroscopy and presented as mean counts/min/well. Histomorphometric analysis. Aortic grafts and carotid arteries were harvested at 56 and 14 days respectively. Vessels were fixed, embedded, and serially sectioned (5μ) in toto. Every third slide was stained with Hematoxylin and Eosin (H&E) for histomorphometric analyses. In both models, one or two images per slide at a resolution of 1520×1080 pixels were captured at a magnification of 25× with a Zeiss microscope (Axioskop, Iowa City, Iowa), RT color SPOT (Diagnostic Instrument, Inc., Saint Joseph, Mich.) and Windows NT (Compaq Computer) using Adobe Photoshop version 5.5 software. Areas from eight to ten captured images were calculated using digital imaging software as number of pixels corresponding to those areas. Twenty-four to forty-eight sections from each group were statistically analyzed with SPSS software version 10. Immunostaining and cell population histomorphometric analysis. […]

[4] = system: PAI-1; assay: PAI-1 protein in transplanted aortas (immunohistology and Western blot); format: in vivo, rat; settings: 56 days after transplantation
Description: as §1

[5] = system: rat aortic SMC; assay: Flow cytometry cell cycle analysis; format: cell-based; settings: CO 250 ppm, 24 hours
Description: as §1

[6] = system: ERK-1 and -2; assay: Western blot of phosphorylated ERK in SMC; format: cell-based; settings: SMC exposed to CO (250 ppm)
Description: as §1

[7] = system: iNOS and eNOS; assay: Western blot of NOS isoforms in SMC; format: cell-based, mouse; settings: CO 250 or 10,000 ppm, varying amounts of time
Description: as §1

[8] = system: intimal hyperplasia in Brown Norway aortic segments transplanted into Lewis rats; assay: Aortic transplant model, histomorphometric analysis of intimal hyperplasia; format: in vivo, rat; settings: CO 250 ppm after transplantation and for 56 days; vs air-exposed recipients; day 56; p<0.001
Description: as §1

[C-]#[O+] [CO, carbon monoxide]
ATF-2 activation [1]: activation | Time of peak p38 MAPK phosphorylation/activation after exposure ([2]; CO 250 ppm): four | p38 MAPK phosphorylation/activation ([2]; SMC exposed to CO (250 ppm)): activated | SMC proliferation ([3]; SMC from ho-1-/- mice): significantly inhibited | Inhibition of SMC proliferation versus air treated controls ([3]; SMC from nos-2-/- (iNOS) mice): 51±25% | Inhibition of SMC proliferation versus air treated controls ([3]; SMC from nos-3-/- (eNOS) mice): 54±11% | SMC proliferation ([3]; SMC from p21Cip1 deficient mice (p21-/-)): not suppressed | SMC proliferation ([3]; SMC from p53-/- mice, similar extent as wild type): inhibited proliferation | Inhibition of SMC proliferation versus air treated controls ([3]; SMC from wild type mice): 51±12.9% | Cell proliferation ([3]; cells from mkk3-/- mice exposed to CO): did not inhibit proliferation | PAI-1 protein expression versus allogeneic aortas transplanted in the absence of CO [4]: similar; also recorded: No decrease | Cell cycle distribution [5]: accumulated in the G0/G1 phase | Activation of ERK-1 and -2 [6]: did not modulate | Induction of NOS isoforms [7]: no induction | Intimal hyperplasia, reduction versus control [8]: 61.4±12.9%
